From patent US9561201B2, “Therapeutic compounds” (Fibrotech Therapeutics Pty Ltd, priority 2006, dated 2017)

Experiments:
[1] = system: rat mesangial cell line; assay: TGF-β stimulated 3H-proline incorporation in mesangial cells (Example 5); type: cell-based; conditions: for Collagen synthesis: inhibition ranked against tranilast (T) or FT11
Procedure: (§1) A well-characterized cloned rat mesangial cell line (gift of D Nikolic-Patterson) is cultured in DMEM with FBS, 100 U/mL penicillin, and 100 ug/mL streptomycin in a humidified 5% CO2 atmosphere at 37° C. Cells are plated into 24-well culture dishes in DMEM/10% FBS at low density and allowed to adhere overnight. Cells are used between passages 20 and 40. The subconfluent cells are starved overnight in DMEM/0.1% FBS containing 150 uM L-ascorbic acid, prior to 4 hours of pre-treatment with or without tranilast or the FT compounds, followed by the addition of 5 ng/mL rhTGF-β11 (R&D Systems) and 1 uCi/mL of L-(2,3,4,5-^3H)-proline. Control wells have the compounds but no TGF-β1 added. Cells are incubated for a further 44 hours during which time their appearance is visually monitored. The cells are then washed three times in ice-cold PBS, twice in ice cold 10% TCA and solubilized in 750 uL 1M NaOH for 45 minutes at 37° C. or overnight at 4° C. A 500 uL aliquot is neutralized with 500 uL 1M HCl and 10 mL scintillation fluid (Instagel Plus-Perkin-Elmer) added. Counts are performed on a beta counter.
To normalize the proline incorporation counts to take into account the proliferative effects of TGF-β1, a BioRad protein assay is performed on a 100-150 uL aliquot of the remaining solubilized cells. The sample is neutralized with an equal amount of 1M HCl prior to the assay. The BSA standards used to construct the standard curve have the same amount of 1M NaOH and 1M HCl added as is present in the samples for assay.
Proline incorporation is expressed as cpm/ug protein. In order to compare inter-assay results, the incorporation is expressed as percentage reduction of TGF stimulated proline incorporation, where TGF alone gives 0% reduction and the zero control gives 100% reduction.

[2] = system: rat mesangial cell line; assay: Effect on mesangial cell appearance (visual monitoring during proline assay); type: cell-based
Procedure: as §1
Compounds in Bold have Minimal Effect on Cell Appearance and Viability

[3] = system: Mesangial cells; assay: Mesangial cell MTT assay with TGF-β; type: cell-based, rat; conditions: suppressed = reduced cell viability
Procedure: Mesangial cells are plated at 15000 cells per well into 96-well culture dishes in DMEM/10% FBS and allowed to adhere overnight. The subconfluent cells are starved overnight in DMEM/0.1% FBS, prior to 4 hours of pre-treatment with or without tranilast or the FT compounds. Following the addition of 5 ng/mL rhTGF-β1, the cells are incubated in a humidified 5% CO2 atmosphere at 37° C. for 44 hours. Control wells have the compounds but no TGF-β1 added. The culture medium is removed from each well and 100 uL MTT (0.5 mg/mL) in starve medium is added to each well. The plates are incubated for a further 4 hours at 37° C. The culture medium is then removed and replaced with 100 μL isopropanol and incubated at 37° C. for 20 to 30 minutes, until the blue formazan crystals have dissolved. The absorbance is measured at a wavelength of 570 nm with background subtraction of 690 nm.
Suppressed MTT Result Indicates Reduced Cell Viability

[4] = Rattus norvegicus, Mesangial cell, 5 ng/mL TGF-β1, 44 h, read-out: Mesangial Cell Assay TGF-β % reduction of TGF-β stimulation_proline inc.

| SMILES | inhibition at 3 µM [1, 4] | inhibition at 10 µM [1, 4] | Collagen synthesis [1] | Effect on mesangial cell appearance ([2]; @ 10 μM) | Mesangial cell MTT Assay TGF-β ([3]; @ 30 μM) | melting point | Effect on mesangial cell appearance ([2]; @ 30 μM) | inhibition at 30 µM [1, 4] | Effect on mesangial cell appearance ([2]; @ 100 μM) | inhibition at 100 µM ([1]; Rattus norvegicus, Mesangial cell, @ 100 μM, 5 ng/mL TGF-β1, 44 h, read-out: Mesangial Cell Assay TGF-β % reduction of TGF-β stimulation_proline inc.) | inhibition at 1 µM [1, 4] | Mesangial cell MTT Assay TGF-β ([3]; @ 10 μM) | Effect on mesangial cell appearance ([2]; @ all concentrations) |
| --- | --- | --- | --- | --- | --- | --- | --- | --- | --- | --- | --- | --- | --- |
| COc1ccc(/C=C/C(=O)Nc2ccc(Br)cc2C(=O)O)cc1OC [Analogue 16, (E)-2-[[3-(3,4-Dimethoxyphenyl)-1-oxo-2-propenyl]amino]-5-bromobenzoic acid] | ~20% | ~50% | >>FT11 | lifting off | Suppressed | 210 to 213 °C |  |  |  |  |  |  |  |
| CCC#CCOc1ccc(/C=C/C(=O)Nc2ccccc2C(=O)O)cc1OC [Analogue 18, (E)-2-[[3-(3-Methoxy-4-(pent-2-ynyloxy)phenyl)-1-oxo-2-propenyl]amino]benzoic acid] | ~55% | ~70% | >>FT11 |  |  | 185.5 to 186.5 °C | lifting off |  |  |  |  |  |  |
| COc1ccc(/C=C/C(=O)Nc2ccccc2C(=O)O)cc1OCc1cn(CC(=O)Nc2ccccc2)nn1 [Analogue 21, (E)-2-[[3-(4-Methoxy-3-((1-(2-oxo-2-(phenylamino)ethyl)-1H-1,2,3-triazol-4-yl)methoxy)phenyl)-1-oxo-2-propenyl]amino]benzoic acid] |  | ~20% | =FT11 |  | Suppressed |  |  | ~65% | necrotic |  |  |  |  |
| CC#CCOc1cc(/C=C/C(=O)Nc2ccccc2C(=O)O)ccc1OC [Analogue 23, (E)-2-{[3-(3-(But-2-ynyloxy)-4-methoxyphenyl)-1-oxo-2-propenyl]amino}benzoic acid] | ~12% | 30 to 60% | >=FT11 |  |  | 170 to 171 °C |  | 70 to 80% | stress @ | ~80% |  |  |  |
| COc1cc(/C=C/C(=O)Nc2ccccc2C(=O)O)ccc1OC1CCCCC1 [Analogue 27, (E)-2-{[3-(4-Cyclohexyloxy-3-methoxyphenyl)-1-oxo-2-propenyl]amino}benzoic acid] | 40% | 75 to 90% | >FT11 | Sparse @ | Suppressed | 90 to 92 °C | sick @ 30 μM |  | lifting off |  | ~18% |  |  |
| COc1cc(/C=C/C(=O)Nc2ccccc2C(=O)O)ccc1OCC1CCCCC1 [Analogue 28, (E)-2-{[3-(4-Cyclohexylmethoxy-3-methoxyphenyl)-1-oxo-2-propenyl]amino}benzoic acid] |  | ~40% | <FT11 |  |  | 207 to 210 °C | Stressed @ | 173% | Dead @ |  |  | deadly ® |  |
| C#CCCCCOc1ccc(/C=C/C(=O)Nc2ccccc2C(=O)O)cc1OC [Analogue 33, (E)-2-[[3-(4-(Hex-5-ynyloxy)-3-methoxyphenyl)-1-oxo-2-propenyl]amino]benzoic acid] | 40% | 60% | >FT11 |  |  | 148 to 150 °C | Looking bad | 80% |  |  | ~15% | Severely |  |
| C#CCCCCOc1cc(/C=C/C(=O)Nc2ccccc2C(=O)O)ccc1OC [Analogue 34, (E)-2-[[3-(3-(Hex-5-ynyloxy)-4-methoxyphenyl)-1-oxo-2-propenyl]amino]benzoic acid] |  | ~80% | >FT11 |  | Suppressed | 135 to 137 °C | Looking bad | 94% |  |  |  |  |  |
| C#CCCCOc1ccc(/C=C/C(=O)Nc2ccccc2C(=O)O)cc1OC [Analogue 35, (E)-2-[[3-(3-Methoxy-4-(pent-4-ynyloxy)phenyl)-1-oxo-2-propenyl]amino]benzoic acid] | ~25% | 50% | =>FT11 |  |  | 166.5 to 167.5 °C | Looking bad | 60 to 100% |  |  |  | Suppressed |  |
| C#CCCCOc1cc(/C=C/C(=O)Nc2ccccc2C(=O)O)ccc1OC [Analogue 36, (E)-2-[[3-(4-Methoxy-3-(pent-4-ynyloxy)phenyl)-1-oxo-2-propenyl]amino]benzoic acid] |  | ~50% | =>FT11 |  | Severely | 154 to 156 °C |  | 80% |  |  |  |  |  |
| C#CCCOc1ccc(/C=C/C(=O)Nc2ccccc2C(=O)O)cc1OC [Analogue 37, (E)-2-[[3-(4-(But-3-ynyloxy)-3-methoxyphenyl)-1-oxo-2-propenyl]amino]benzoic acid] |  | ~50% | =FT11 |  |  | 178 to 180 °C |  | 70% | Some death |  |  |  |  |
| C#CCCOc1cc(/C=C/C(=O)Nc2ccccc2C(=O)O)ccc1OC [Analogue 38, (E)-2-[[3-(3-(But-3-ynyloxy)-4-methoxyphenyl)-1-oxo-2-propenyl]amino]benzoic acid] |  | ~40% | =FT11 |  |  | 197 to 198 °C |  | 65% | Some death |  |  |  |  |
| CCC#CCCOc1ccc(/C=C/C(=O)Nc2ccccc2C(=O)O)cc1OC [Analogue 39, (E)-2-[[3-(4-(Hex-3-ynyloxy)-3-methoxyphenyl)-1-oxo-2-propenyl]amino]benzoic acid] |  | ~70% | >FT11 |  |  | 165 to 166 °C | Looking bad | 100% |  |  |  |  |  |
| CCC#CCCOc1cc(/C=C/C(=O)Nc2ccccc2C(=O)O)ccc1OC [Analogue 40, (E)-2-[[3-(3-(Hex-3-ynyloxy)-4-methoxyphenyl)-1-oxo-2-propenyl]amino]benzoic acid] |  | ~70% | >FT11 |  |  | 163 to 165 °C |  | 100% | dead |  |  |  |  |
| CCCCC#CCCOc1ccc(/C=C/C(=O)Nc2ccccc2C(=O)O)cc1OC [Analogue 41, (E)-2-[[3-(3-Methoxy-4-(oct-3-ynyloxy)phenyl)-1-oxo-2-propenyl]amino]benzoic acid] |  |  | Toxic |  |  | 169 to 170 °C |  |  |  |  |  |  | Cells damaged @ |
| CCCCC#CCCOc1cc(/C=C/C(=O)Nc2ccccc2C(=O)O)ccc1OC [Analogue 42, (E)-2-[[3-(4-Methoxy-3-(oct-3-ynyloxy)phenyl)-1-oxo-2-propenyl]amino]benzoic acid] |  |  | Toxic |  |  | 157 to 158 °C |  |  |  |  |  |  | Cells damaged @ |
| CCC(CC)Oc1ccc(/C=C/C(=O)Nc2ccccc2C(=O)O)cc1OC [Analogue 45, (E)-2-[[3-(3-Methoxy-4-(pent-3-yloxy)phenyl)-1-oxo-2-propenyl]amino]benzoic acid] |  | 80% | >FT11 |  |  | 82 to 85 °C |  | 142% | Cells damaged |  |  |  |  |
